Measured values reported in ChEMBL document CHEMBL2413047, “Identification of GNE-293, a potent and selective PI3Kδ inhibitor: navigating in vitro genotoxicity while improving potency and selectivity” (Bioorg Med Chem Lett, 2013).
Values after ≈ are worked out from the molar mass of the structure shown.

How the values were obtained:
[1] = target: Phosphatidylinositol 4,5-bisphosphate 3-kinase catalytic subunit alpha isoform (Homo sapiens, UniProt P42336); assay: Inhibition of PI3Kalpha (unknown origin) assessed as formation of PIP3 by competitive fluorescence polarization assay; conditions: read-out: Ki(app)
[2] = target: T1, Phosphatidylinositol 4,5-bisphosphate 3-kinase catalytic subunit delta isoform (Homo sapiens, UniProt O00329); assay: Inhibition of PI3Kdelta (unknown origin) assessed as formation of PIP3 by competitive fluorescence polarization assay; conditions: read-out: Ki(app)
T1 sequence (O00329 whole entry): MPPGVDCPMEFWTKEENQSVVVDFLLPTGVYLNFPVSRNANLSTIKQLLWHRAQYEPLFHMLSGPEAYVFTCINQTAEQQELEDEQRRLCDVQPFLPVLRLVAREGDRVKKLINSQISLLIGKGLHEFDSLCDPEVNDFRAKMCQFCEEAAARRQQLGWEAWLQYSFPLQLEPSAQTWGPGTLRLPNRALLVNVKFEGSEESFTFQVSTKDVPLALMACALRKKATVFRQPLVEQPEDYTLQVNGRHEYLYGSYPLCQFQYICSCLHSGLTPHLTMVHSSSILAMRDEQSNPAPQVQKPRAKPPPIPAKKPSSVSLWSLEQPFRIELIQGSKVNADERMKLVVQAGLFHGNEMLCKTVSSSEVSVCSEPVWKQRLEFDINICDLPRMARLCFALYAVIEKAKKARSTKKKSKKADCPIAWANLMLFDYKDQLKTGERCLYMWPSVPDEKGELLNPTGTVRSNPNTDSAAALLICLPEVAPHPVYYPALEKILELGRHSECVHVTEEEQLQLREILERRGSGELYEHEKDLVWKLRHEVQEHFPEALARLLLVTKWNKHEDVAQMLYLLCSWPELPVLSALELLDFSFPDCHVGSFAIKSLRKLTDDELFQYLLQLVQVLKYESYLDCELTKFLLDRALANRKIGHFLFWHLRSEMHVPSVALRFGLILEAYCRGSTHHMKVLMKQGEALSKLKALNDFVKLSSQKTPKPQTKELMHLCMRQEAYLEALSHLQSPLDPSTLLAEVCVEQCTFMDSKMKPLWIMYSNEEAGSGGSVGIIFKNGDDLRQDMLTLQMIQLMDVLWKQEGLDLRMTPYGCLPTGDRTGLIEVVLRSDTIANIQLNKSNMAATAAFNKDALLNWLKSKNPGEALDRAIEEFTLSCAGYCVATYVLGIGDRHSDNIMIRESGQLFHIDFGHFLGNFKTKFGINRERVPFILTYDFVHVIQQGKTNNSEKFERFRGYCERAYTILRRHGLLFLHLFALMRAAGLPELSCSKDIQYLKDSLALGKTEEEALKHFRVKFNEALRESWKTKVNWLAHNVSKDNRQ

[3] = target: T1, Phosphatidylinositol 4,5-bisphosphate 3-kinase catalytic subunit delta isoform; assay: Inhibition of PI3Kdelta in human whole blood assessed as expression of CD69 in B cell preincubated for 1 hr by flow cytometry; type: tissue-based
[4] = target: Phosphatidylinositol 4-phosphate 3-kinase C2 domain-containing subunit beta (Homo sapiens) (UniProt O00750); assay: Inhibition of PI3KC2b (unknown origin) at 10 uM
[5] = target: Maternal embryonic leucine zipper kinase (Homo sapiens) (UniProt Q14680); assay: Inhibition of MELK (unknown origin) at 10 uM
[6] = test system: Serine/threonine-protein kinase B-raf (Homo sapiens), P15056 [V600E]; assay: Inhibition of B-Raf V599E mutant (unknown origin) at 10 uM
[7] = Kinetic solubility of the compound; type: physicochemical; conditions: read-out: Kinetic_solubility
[8] = Genotoxicity in human lymphocytes assessed as chromosome aberration; type: toxicity, cell-based; conditions: lymphocyte
CHO-K1 = assay: Genotoxicity in CHOK1 cells by micronucleus assay; type: toxicity, cell-based, Cricetulus griseus; conditions: chinese hamster
[9] = Genotoxicity in human lymphocytes assessed as chromosome aberration at […] relative to control; type: toxicity, cell-based; conditions: lymphocyte
[10] = AUC in dog at 10 mg/kg, po; type: ADME, organism-based, Canis lupus familiaris; parameters: dose 10 mg/kg, route oral; conditions: plasma
[11] = AUC in rat at 5 mg/kg, po; type: ADME, organism-based; parameters: dose 5 mg/kg, route oral; conditions: plasma
[12] = AUC in dog at 2 mg/kg, po; type: ADME, organism-based, Canis lupus familiaris; parameters: dose 2 mg/kg, route oral; conditions: plasma
[13] = Cmax in dog at 2 mg/kg, po; type: ADME, organism-based, Canis lupus familiaris; parameters: dose 2 mg/kg, route oral; conditions: in vivo
[14] = Cmax in dog at 10 mg/kg, po; type: ADME, organism-based, Canis lupus familiaris; parameters: dose 10 mg/kg, route oral; conditions: in vivo
[15] = Oral bioavailability in dog at 10 mg/kg; type: ADME, organism-based, Canis lupus familiaris; conditions: in vivo
[16] = Cmax in rat at 5 mg/kg, po; type: ADME, organism-based; parameters: dose 5 mg/kg, route oral; conditions: in vivo
[17] = Oral bioavailability in rat at 5 mg/kg; type: ADME, organism-based; conditions: in vivo
[18] = Oral bioavailability in dog at 2 mg/kg; type: ADME, organism-based, Canis lupus familiaris; conditions: in vivo
[19] = Half life in rat at 1 mg/kg, iv; type: ADME, organism-based; parameters: dose 1 mg/kg, route intravenous; conditions: in vivo
[20] = Half life in dog at 1 mg/kg, iv; type: ADME, organism-based, Canis lupus familiaris; parameters: dose 1 mg/kg, route intravenous; conditions: in vivo
[21] = Volume of distribution at steady state in dog at 1 mg/kg, iv; type: ADME, organism-based, Canis lupus familiaris; parameters: dose 1 mg/kg, route intravenous; conditions: in vivo, read-out: Vdss
[22] = Volume of distribution at steady state in rat at 1 mg/kg, iv; type: ADME, organism-based; parameters: dose 1 mg/kg, route intravenous; conditions: in vivo, read-out: Vdss
[23] = Clearance in rat at 1 mg/kg, iv; type: ADME, organism-based; parameters: dose 1 mg/kg, route intravenous; conditions: in vivo
[24] = Clearance in dog at 1 mg/kg, iv; type: ADME, organism-based, Canis lupus familiaris; parameters: dose 1 mg/kg, route intravenous; conditions: in vivo
[25] = Plasma protein binding in dog; type: ADME, cell-free, Canis lupus familiaris; conditions: read-out: PPB (converted)
[26] = Plasma protein binding in rat; type: ADME, cell-free; conditions: read-out: PPB (converted)
[27] = target: Phosphatidylinositol 4-kinase beta (Homo sapiens) (UniProt Q9UBF8); assay: Inhibition of PI4Kb (unknown origin) at 1 uM
[28] = target: Serine/threonine-protein kinase B-raf (Homo sapiens) (UniProt P15056); assay: Inhibition of B-Raf (unknown origin) at 1 uM
[29] = Genotoxicity in human lymphocytes assessed as mitotic index at […] (reference value: 11.1); type: toxicity, cell-based; conditions: lymphocyte

Sequence of Phosphatidylinositol 4,5-bisphosphate 3-kinase catalytic subunit alpha isoform (P42336 whole entry, canonical isoform): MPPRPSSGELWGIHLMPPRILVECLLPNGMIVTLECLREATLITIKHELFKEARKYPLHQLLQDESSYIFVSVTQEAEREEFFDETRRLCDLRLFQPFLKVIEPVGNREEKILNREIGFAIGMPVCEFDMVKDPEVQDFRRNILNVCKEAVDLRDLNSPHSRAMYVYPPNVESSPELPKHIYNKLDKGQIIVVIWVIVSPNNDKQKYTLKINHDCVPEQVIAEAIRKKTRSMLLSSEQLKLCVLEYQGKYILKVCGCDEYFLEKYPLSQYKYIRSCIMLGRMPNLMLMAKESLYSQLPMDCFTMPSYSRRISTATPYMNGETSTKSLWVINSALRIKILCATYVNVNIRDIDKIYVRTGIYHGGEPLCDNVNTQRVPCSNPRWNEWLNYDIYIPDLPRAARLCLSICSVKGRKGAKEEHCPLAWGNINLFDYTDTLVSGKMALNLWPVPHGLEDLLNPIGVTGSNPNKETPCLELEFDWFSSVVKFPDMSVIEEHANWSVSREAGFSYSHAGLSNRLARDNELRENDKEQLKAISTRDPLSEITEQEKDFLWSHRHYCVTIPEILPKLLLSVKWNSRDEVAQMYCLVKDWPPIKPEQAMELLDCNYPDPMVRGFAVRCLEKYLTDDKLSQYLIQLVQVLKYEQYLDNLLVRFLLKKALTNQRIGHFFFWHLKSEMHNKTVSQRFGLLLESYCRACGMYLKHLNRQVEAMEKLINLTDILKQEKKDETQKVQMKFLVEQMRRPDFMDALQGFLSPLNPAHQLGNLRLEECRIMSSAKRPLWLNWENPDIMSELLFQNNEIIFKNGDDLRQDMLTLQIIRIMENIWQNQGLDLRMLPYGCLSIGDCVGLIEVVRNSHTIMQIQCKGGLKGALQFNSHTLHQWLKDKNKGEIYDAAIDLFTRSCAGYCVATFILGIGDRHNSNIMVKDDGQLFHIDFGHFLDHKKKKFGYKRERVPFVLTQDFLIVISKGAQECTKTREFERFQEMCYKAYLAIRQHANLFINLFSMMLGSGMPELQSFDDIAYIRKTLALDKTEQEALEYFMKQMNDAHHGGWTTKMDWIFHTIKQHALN
Sequence of Phosphatidylinositol 4-kinase beta (Homo sapiens) (Q9UBF8 2-816 limits assumed): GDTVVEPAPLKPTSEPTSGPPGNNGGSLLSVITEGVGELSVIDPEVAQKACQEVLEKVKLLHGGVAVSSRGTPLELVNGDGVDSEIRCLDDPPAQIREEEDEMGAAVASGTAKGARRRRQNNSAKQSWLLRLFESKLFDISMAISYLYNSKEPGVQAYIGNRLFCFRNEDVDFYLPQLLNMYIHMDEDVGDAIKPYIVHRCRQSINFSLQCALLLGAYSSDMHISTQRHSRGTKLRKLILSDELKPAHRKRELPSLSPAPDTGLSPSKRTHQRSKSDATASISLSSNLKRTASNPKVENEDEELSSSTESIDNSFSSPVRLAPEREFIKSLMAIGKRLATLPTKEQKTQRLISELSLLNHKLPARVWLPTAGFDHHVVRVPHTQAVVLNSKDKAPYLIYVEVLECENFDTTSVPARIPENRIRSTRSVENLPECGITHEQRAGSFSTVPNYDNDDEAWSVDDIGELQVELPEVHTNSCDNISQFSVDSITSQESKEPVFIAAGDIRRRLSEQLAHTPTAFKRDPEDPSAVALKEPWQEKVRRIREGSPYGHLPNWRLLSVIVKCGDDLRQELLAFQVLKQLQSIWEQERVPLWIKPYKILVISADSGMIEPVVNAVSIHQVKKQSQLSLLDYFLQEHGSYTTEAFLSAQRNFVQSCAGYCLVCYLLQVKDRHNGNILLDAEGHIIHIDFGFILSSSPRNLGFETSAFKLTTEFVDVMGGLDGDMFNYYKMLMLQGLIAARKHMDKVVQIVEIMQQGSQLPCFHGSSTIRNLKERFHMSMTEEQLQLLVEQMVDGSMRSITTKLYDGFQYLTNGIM
Sequence of Serine/threonine-protein kinase B-raf (Homo sapiens) (P15056 whole entry): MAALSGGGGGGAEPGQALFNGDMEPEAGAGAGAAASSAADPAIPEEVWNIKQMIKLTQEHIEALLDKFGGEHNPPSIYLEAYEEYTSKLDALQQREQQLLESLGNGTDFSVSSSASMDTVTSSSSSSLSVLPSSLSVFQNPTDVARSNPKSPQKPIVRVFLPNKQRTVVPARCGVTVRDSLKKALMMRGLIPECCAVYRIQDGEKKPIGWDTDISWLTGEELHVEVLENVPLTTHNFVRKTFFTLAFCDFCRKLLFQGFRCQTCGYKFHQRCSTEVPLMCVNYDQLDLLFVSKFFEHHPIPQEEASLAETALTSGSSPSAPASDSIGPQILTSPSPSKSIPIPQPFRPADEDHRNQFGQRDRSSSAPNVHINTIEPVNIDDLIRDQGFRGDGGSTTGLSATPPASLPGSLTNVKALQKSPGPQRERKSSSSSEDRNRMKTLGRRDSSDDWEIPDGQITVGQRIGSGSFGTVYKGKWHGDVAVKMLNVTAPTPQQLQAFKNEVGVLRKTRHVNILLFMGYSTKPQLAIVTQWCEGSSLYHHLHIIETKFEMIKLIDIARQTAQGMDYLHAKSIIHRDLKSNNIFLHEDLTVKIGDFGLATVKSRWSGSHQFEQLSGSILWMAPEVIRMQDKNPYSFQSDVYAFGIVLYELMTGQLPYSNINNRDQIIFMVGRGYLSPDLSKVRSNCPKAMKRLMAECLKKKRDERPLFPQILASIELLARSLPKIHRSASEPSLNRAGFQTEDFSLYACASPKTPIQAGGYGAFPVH
Sequence of Maternal embryonic leucine zipper kinase (Homo sapiens) (Q14680 whole entry, looked up): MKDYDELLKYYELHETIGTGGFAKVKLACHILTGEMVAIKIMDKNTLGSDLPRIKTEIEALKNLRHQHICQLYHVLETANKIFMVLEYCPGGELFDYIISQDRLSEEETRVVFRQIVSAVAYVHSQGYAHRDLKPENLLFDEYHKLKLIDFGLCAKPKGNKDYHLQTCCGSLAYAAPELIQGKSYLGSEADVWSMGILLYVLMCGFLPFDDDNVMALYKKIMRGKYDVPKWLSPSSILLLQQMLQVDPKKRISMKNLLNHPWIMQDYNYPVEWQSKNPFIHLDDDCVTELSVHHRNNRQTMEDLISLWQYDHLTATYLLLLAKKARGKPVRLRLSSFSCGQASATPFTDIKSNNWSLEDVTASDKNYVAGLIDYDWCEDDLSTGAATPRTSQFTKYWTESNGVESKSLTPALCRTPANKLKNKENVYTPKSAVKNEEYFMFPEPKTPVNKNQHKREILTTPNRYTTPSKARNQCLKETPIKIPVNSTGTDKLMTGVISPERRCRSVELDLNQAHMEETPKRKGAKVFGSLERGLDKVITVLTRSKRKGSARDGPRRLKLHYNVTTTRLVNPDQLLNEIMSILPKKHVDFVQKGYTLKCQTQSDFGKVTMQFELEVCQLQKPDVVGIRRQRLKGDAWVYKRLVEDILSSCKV
Sequence of Phosphatidylinositol 4-phosphate 3-kinase C2 domain-containing subunit beta (Homo sapiens) (O00750 whole entry, the tested form may be a part): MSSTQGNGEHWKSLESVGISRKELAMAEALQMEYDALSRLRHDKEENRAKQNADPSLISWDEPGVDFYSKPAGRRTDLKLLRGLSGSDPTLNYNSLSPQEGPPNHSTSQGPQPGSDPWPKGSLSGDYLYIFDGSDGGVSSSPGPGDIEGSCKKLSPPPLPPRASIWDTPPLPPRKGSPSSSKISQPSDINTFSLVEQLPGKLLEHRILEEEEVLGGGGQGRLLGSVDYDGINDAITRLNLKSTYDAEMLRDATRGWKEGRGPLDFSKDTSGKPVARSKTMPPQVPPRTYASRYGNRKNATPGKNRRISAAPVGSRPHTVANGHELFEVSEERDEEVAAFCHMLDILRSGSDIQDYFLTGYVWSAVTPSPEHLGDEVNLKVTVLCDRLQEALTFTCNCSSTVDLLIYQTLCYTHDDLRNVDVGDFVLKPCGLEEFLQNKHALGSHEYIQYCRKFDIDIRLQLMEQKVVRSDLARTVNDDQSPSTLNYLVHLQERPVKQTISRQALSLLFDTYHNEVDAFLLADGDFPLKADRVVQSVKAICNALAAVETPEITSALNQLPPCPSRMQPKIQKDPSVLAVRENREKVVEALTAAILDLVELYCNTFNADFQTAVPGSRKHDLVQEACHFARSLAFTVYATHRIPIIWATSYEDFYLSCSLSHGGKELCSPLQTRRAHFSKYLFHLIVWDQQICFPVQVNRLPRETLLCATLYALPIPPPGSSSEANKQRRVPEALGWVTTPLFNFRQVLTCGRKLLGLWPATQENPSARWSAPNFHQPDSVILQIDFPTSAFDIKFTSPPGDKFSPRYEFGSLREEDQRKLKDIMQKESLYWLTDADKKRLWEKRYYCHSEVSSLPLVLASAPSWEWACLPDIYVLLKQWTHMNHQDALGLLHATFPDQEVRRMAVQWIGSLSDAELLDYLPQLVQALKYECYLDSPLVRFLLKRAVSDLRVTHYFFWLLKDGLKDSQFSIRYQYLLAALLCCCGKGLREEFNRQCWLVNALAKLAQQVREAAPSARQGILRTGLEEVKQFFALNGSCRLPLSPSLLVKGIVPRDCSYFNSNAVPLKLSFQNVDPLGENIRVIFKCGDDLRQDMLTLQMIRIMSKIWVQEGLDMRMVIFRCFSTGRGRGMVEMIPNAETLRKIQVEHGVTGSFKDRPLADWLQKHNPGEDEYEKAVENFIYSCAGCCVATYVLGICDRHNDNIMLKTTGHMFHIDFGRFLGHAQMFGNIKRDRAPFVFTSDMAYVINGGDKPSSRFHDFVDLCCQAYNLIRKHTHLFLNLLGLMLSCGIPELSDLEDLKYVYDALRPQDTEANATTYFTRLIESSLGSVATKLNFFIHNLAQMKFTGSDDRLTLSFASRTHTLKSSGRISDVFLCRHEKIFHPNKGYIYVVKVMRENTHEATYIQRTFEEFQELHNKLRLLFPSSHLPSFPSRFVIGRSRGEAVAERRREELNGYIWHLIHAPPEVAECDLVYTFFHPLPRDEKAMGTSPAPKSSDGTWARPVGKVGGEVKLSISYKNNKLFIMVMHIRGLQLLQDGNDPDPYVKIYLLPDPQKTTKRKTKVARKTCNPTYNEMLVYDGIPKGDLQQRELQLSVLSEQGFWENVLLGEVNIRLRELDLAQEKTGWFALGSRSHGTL
Sequence of Serine/threonine-protein kinase B-raf (Homo sapiens), P15056 [V600E] (P15056 whole entry V600E): as the sequence (P15056 whole entry) above, with V600E counted along it

## CCc1nc2ccccc2n1-c1nc(N2CCOCC2)c2sc(C(=O)N3CCN(C(C)(C)C(N)=O)CC3)c(C)c2n1
[1]
  Ki: 157 nM
[2]
  Ki: 12.7 nM

## CCc1nc2ccccc2n1-c1nc(N2CCOCC2)c2nc(C(=O)N3CCN(C(C)(C)C(N)=O)CC3)n(C)c2n1
[1]
  Ki: 236 nM
[2]
  Ki: 0.8 nM

## CCc1nc2ccccc2n1-c1nc(N2CCOCC2)c2nc(N(C)C3CN(C4CCS(=O)(=O)CC4)C3)n(C)c2n1
[3]
  IC50: 1.79 nM
[2]
  Ki: 0.59 nM

## CC(C)c1nc2ccccc2n1-c1nc(N2CCOCC2)c2nc(CN3CCC(C(C)(C)O)CC3)n(C)c2n1
[4]
  inhibition: 72%
[5]
  inhibition: 63%
[6]
  inhibition: 53%
[7]
  solubility kinetic: 32 µM (≈ 17 µg/mL)
[8]
  Activity: Toxic
CHO-K1
  Activity: Non-toxic

## CCc1nc2ccccc2n1-c1nc(N2CCOCC2)c2nc(CN3CCC(C(C)(C)O)CC3)n(C)c2n1
[8]
  Activity: Toxic
CHO-K1
  Activity: Toxic

## CCc1nc2ccccc2n1-c1nc(N2CCOCC2)c2nc(NC3CN(C(=O)C(C)C)C3)n(C)c2n1
[2]
  Ki: 0.88 nM

## CC(C)(O)C1CCN(Cc2cc3nc(-c4cccc5[nH]ncc45)nc(N4CCOCC4)c3s2)CC1
[8]
  Activity: Non-toxic
[2]
  Ki: 1.1 nM
CHO-K1
  Activity: Non-toxic

## CNc1nc2ccccc2n1-c1nc(N2CCOCC2)c2nc(CN3CCC(C(C)(C)O)CC3)n(C)c2n1
CHO-K1
  Activity: Toxic

## Cc1nc2ccccc2n1-c1nc(N2CCOCC2)c2nc(CN3CCC(C(C)(C)O)CC3)n(C)c2n1
[8]
  Activity: Toxic
CHO-K1
  Activity: Toxic

## CCc1nc2ccccc2n1-c1nc(N2CCOCC2)c2nc(CC3CN(C(=O)C(C)C)C3)n(C)c2n1
[3]
  IC50: 9.96 nM
[2]
  Ki: 0.36 nM

## Cn1c(CN2CCC(C(C)(C)O)CC2)nc2c(N3CCOCC3)nc(-n3c(C4CC4)nc4ccccc43)nc21
[8]
  Activity: Toxic
CHO-K1
  Activity: Non-toxic

## CCc1nc2ccccc2n1-c1nc(N2CCOCC2)c2nc(C(=O)N3CCC(C(C)(C)O)CC3)n(C)c2n1
[3]
  IC50: 52.8 nM
[2]
  Ki: 3.1 nM

## CC(C)c1nc2ccccc2n1-c1nc(N2CCOCC2)c2nc(OC3CN(C4CCS(=O)(=O)CC4)C3)n(C)c2n1
[9]
  Activity: 2%
[10]
  AUC: 128 µM·h
[11]
  AUC: 7.23 µM·h
[12]
  AUC: 21.1 µM·h
[13]
  Cmax: 1740 nM
[14]
  Cmax: 8.81 µM
[15]
  bioavailability: 100%
[16]
  Cmax: 1180 nM
[17]
  bioavailability: 96.2%
[18]
  bioavailability: 82.6%
[19]
  half-life: 155 min
[20]
  half-life: 696 min
[21]
  Vd: 2.2 L/kg
[22]
  Vd: 3.6 L/kg
[23]
  clearance: 19.4 mL/min/kg
[24]
  clearance: 2.3 mL/min/kg
[25]
  fraction unbound: 0.2
[26]
  fraction unbound: 0.183
[27]
  inhibition: 71%
[28]
  inhibition: 61%
[3]
  IC50: 4.38 nM
[2]
  Ki: 0.47 nM
[29]
  Activity: 6.8%

## Cn1c(CN2CCC(C(C)(C)O)CC2)nc2c(N3CCOCC3)nc(-c3cccc4[nH]ncc34)nc21
[2]
  Ki: 2.3 nM

## CCc1nc2ccccc2n1-c1nc(N2CCOCC2)c2nc(CC3CN(C4CCS(=O)(=O)CC4)C3)n(C)c2n1
[23]
  clearance: 63 mL/min/kg
[3]
  IC50: 4.02 nM
[2]
  Ki: 0.23 nM

## CCc1nc2ccccc2n1-c1nc(N2CCOCC2)c2nc(NC3CN(C4CCS(=O)(=O)CC4)C3)n(C)c2n1
[3]
  IC50: 80.2 nM
[2]
  Ki: 0.9 nM

## CCc1nc2ccccc2n1-c1nc(N2CCOCC2)c2sc(CN3CCC(C(C)(C)O)CC3)cc2n1
[8]
  Activity: Non-toxic
CHO-K1
  Activity: Non-toxic
